5 compounds from US10335400B2, “Treatment of tauopathies with mGluR5 antagonists” (priority 2014, dated 2019) can be followed below.

“Also recorded” adds a separate entry of the source.

One assay deals with tau. As to the kind of experiment: Tau phosphorylation (Western blots) in metabolically active rat brain slices. The assay is classed as cell-based. Conditions: rat brain slices; for BMAA-induced tau hyperphosphorylation at the 12E8 site: 30 min preincubation. On the procedure: (§1) Male Wistar rats (Charles River Laboratories), 2-3 months old, were anesthetized by i.p. injection with 50 mg/kg Nembutal. The animals were decapitated when deeply anesthetized. The brains were removed immediately and cooled in ice-cold (4° C.) oxygenated artificial cerebrospinal fluid (aCSF) consisting of 126 mM NaCl, 3.5 mM KCl, 1.2 mM NaH2PO4, 1.3 mM MgCl2, 2 mM CaCl2, 11 mM D(+) glucose, and 25 mM NaHCO3 (pH 7.4) for 7-8 min. Each brain then was divided sagittally, and 400-μm-thick coronal slices were made with a Camden Vibraslicer (WP, Inc.). The slices were transferred into a chamber containing the oxygenated aCSF and were incubated at 33° C. for 2 h in the presence or absence of 1 mM, β-N ? methylamino-L-alanine (BMAA) dissolved in 10 mM NaHCO3 (Sigma). The oxygenation of the aCSF was carried out by bubbling the solution with a mixture of 95% O2 and 5% CO2 during the entire procedure. At the end of incubation, the brain slices were homogenized with homogenizing buffer [50 mM Tris·HCl (pH 7.4), 8.5% (wt/vol) sucrose, 2 mM EDTA, 2 mM EGTA, 10 mM (3-mercaptoethanol, 5 mM benzamidine, 0.5 mM 4-(2-Aminoethyl) benzenesulfonyl fluoride hydrochloride (AEBSF), 4 μg/mL pepstatin A, and 10 μg/mL each of aprotinin and leupepin] at a ratio of 9.0 mL buffer/1.0 g tissue slices. The homogenates were divided into two parts. One part was centrifuged at 16,000×g for 10 min, and the resulting supernatant was used to assay protein phosphatase 2A (PP2A) activity. Into the other half, an equal volume of phosphatase-inhibitor mixture (20 mM 3-glycerophosphate, 2 mM Na3VO4, and 100 mM NaF) was added immediately, and the samples were used for Western blots.
Protein was fractionated by 10% SDS/PAGE, transferred to PVDF membrane, and then blocked with 5% skim milk for 1 h at room temperature. The membrane was probed with anti-IPP2A (5G6, 1:1, 500) (7), anti-I2P2A (10E7, 1:1, 600) (7), anti-tau ˜92e; 1:5,000) (8), anti-tau (R134d; 1:5 000) (9), anti-tau pSer^262/^356 (12E8; 1:500) (10, anti-tau pSer^199, anti-tau pThr^205, anti-tau pThr^212, and pSer^396 (1:1,000) (Biosource), anti-GAPDH (1:2,000) (Santa Cruz Biotechnology), anti-PP2Ac (1:10 000) (BD Transduction Lab), anti pY^307-PP2A and anti-DML^309-PP2A (1:1,000) (Millipore), anti-GSK-3(α/β), anti-pS^9-GSK-3 β, anti-ERK1/2, anti-pT^202/Y^204-ERK1/2, anti-MEK1/2, anti-p9^17/221-MEK1/2, anti-CAMKII, anti-pT^286-CAMKII, anti-p70 S6 kinase, anti-pT^389-p70 S6 kinase, anti-SAPK/JNK, and anti-pT^183/Y^185-SAPK/JNK (1:1,000) (Cell Signaling Technology). The membrane then was incubated with HRP-conjugated secondary antibody (Jackson ImmunoResearch). The protein bands were detected with the enhanced chemiluminescence reagents (Thermo Scientific). Band intensity was measured by Multi-Gauge V3 software (Fuji Photo Film).
In general terms: In western blotting, separated proteins are transferred to a membrane and probed.

In a further assay the test system is PP2A. Description: PP2A activity (phosphatase ELISA) in rat brain slices. It counts as cell-based. Conditions: 30 min pretreatment, BMAA 1 mM 2 h, rat brain slices. On the procedure: as §1
(In general: In an ELISA, binding on a coated surface is turned into a signal by an enzyme label.)

A further assay concerns the target T1, mGluR5-PP2A complex (Mus musculus, UniProt Q3UVX5).
T1 construct: endogenous in cells; host or cells: mouse primary hippocampal neuronal cultures
As to the kind of experiment: Coimmunoprecipitation of PP2Ac with mGluR5 in primary neurons. The assay is classed as cell-based. On the procedure: Mouse hippocampal cell proteins were prepared with low-stringency lysis buffer [50 mM Hepes (pH 7.4), 10% (vol/vol) glycerol, 1.5 mM MgCl2, 5 mM NaF, 1 mM Na3VO4, 1 mM EDTA, 1 mM EGTA, 1% Nonidet P-40, 5 mM AEBSF, 10 μg/mL aprotinin, leupeptin, pepstatin] and were homogenized by several freeze-thaw cycles followed by water bath sonication. The homogenate was centrifuged at 14,000×g at 4° C. for 15 min. For transfection experiments with vector (DsRed) and with DsRed-PP2A catalytic subunit (PP2Ac), primary neurons were processed in a similar manner. The supernatants then were used for immunoprecipitation with mouse anti-PP2A (1D6; Millipore) followed by incubation with protein G-Sepharose (Thermo Scientific). The Western blots of immunoprecipitates were probed with rabbit anti-mGluR5 (Millipore) and rabbit anti-PP2Ac [R123d] (FIG. 55).

The next assay relates to ERK1/2. As to the kind of experiment: ERK1/2 phosphorylation in primary neurons treated with okadaic acid. It counts as cell-based, mouse. Conditions: okadaic acid 10-100 nM, 30 min. On the procedure: FIGS. 11A and 11B are images showing the inhibition of PP2A induces ERK1/2 phosphorylation. Primary neurons were treated with the PP2A inhibitor okadaic acid (OA, 10-100 nM) for 30 min and were processed for ERK1/2 analysis. (A) Representative Western blots showing phosphorylation of ERK1/2. (B) Quantitative analysis of pERK1/2 after normalization with total ERK1/2. Data are expressed as mean±SEM. *P<0.05; **P<0.01.
Protein was fractionated by 10% SDS/PAGE, transferred to PVDF membrane, and then blocked with 5% skim milk for 1 h at room temperature. […] The protein bands were detected with the enhanced chemiluminescence reagents (Thermo Scientific). Band intensity was measured by Multi-Gauge V3 software (Fuji Photo Film).

T1 sequence (Q3UVX5 19-1203, one chain of several): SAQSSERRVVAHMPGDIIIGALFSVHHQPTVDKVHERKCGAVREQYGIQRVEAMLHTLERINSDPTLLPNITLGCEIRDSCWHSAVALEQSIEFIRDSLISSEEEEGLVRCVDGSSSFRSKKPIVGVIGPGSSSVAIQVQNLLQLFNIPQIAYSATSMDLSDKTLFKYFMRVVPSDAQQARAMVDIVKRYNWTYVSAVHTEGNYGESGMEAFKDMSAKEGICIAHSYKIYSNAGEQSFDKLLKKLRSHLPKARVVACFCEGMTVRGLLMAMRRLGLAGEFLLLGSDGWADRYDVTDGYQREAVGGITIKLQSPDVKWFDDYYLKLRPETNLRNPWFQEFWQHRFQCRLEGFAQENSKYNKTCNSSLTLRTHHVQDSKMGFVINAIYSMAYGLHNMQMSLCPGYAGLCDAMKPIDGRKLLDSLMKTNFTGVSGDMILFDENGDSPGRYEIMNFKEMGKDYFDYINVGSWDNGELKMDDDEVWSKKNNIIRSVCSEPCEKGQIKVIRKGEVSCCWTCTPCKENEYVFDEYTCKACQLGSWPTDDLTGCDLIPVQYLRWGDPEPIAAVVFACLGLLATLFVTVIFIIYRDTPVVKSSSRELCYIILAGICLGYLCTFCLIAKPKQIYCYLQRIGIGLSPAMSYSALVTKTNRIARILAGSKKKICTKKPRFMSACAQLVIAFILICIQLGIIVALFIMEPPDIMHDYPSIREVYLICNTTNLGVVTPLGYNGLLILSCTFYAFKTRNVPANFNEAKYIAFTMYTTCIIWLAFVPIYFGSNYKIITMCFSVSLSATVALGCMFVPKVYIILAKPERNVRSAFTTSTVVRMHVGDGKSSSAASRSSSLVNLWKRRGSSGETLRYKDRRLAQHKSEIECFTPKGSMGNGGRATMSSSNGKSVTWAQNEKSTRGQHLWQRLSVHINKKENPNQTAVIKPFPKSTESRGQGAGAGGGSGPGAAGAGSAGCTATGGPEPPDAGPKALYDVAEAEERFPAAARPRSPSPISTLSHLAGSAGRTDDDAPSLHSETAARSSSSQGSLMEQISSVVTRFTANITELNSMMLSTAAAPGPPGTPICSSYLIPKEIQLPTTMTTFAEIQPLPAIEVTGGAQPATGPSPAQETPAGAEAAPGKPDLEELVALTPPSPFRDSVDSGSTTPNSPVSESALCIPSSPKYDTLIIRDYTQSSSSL

In the case of `N#Cc1cc2c(cc1[N+](=O)[O-])=NC(=O)C(=O)N=2` [CNQX, 6-cyano-7-nitroquinoxaline-2,3-dione], in the assay on tau (CNQX 20 μM alone, BMAA 1 mM 2 h), the “BMAA-induced tau hyperphosphorylation at the 12E8 site” value was “no significant change”. In addition, the “BMAA induced decrease in PP2A activity blocked by pretreatment” value in the assay on PP2A (CNQX 20 μM) is “not”.

Regarding `CCCCCCCCCCCCC/C=C/[C@@H](O)[C@@H](N)CO` [DES, D-Erythro-S], in the assay with tau (DES 15 nM pretreatment, BMAA 1 mM 2 h), the BMAA-induced tau hyperphosphorylation entry is “blocked; also recorded: entirely prevented”.

For the compound `Cc1cccc(C#Cc2ccccc2)n1` [MPEP, 2-methyl-6-(phenylethynyl)pyridine], on mGluR5-PP2A complex, the “BMAA-induced dissociation of PP2A from mGluR5” value was “completely blocked”. The “BMAA-induced tau hyperphosphorylation at the 12E8 site” value in the assay with tau (50 μM MPEP, BMAA 1 mM 2 h) is on record as “significantly blocked”. Further, the “BMAA induced decrease in PP2A activity blocked by pretreatment” value in the assay with PP2A (MPEP 50 μM) was “blocked completely”.

In the case of `CC(C)(C)n1nc(-c2ccc(Cl)cc2)c2c(N)ncnc21` [PP2], the BMAA-induced tau hyperphosphorylation result with tau (PP2 10 μM, 30 min before BMAA) is “blocked; also recorded: significantly attenuated”.

In the case of `C=C1[C@@H](O)[C@@H]2O[C@]3(CC[C@H](/C=C/[C@@H](C)[C@@H]4CC(C)=C[C@@]5(O[C@H](C[C@@](C)(O)C(=O)O)CC[C@H]5O)O4)O3)CC[C@H]2O[C@@H]1[C@@H](O)C[C@H](C)[C@H]1O[C@@]2(CCCCO2)CC[C@H]1C` [okadaic acid], the ERK1/2 phosphorylation result in the assay with ERK1/2 was “up-regulates”.
